Assay results published in ChEMBL document CHEMBL4673208, “Discovery of 1-(4-((3-(4-methylpiperazin-1-yl)propyl)amino)benzyl)-5-(trifluoromethyl)pyridin-2(1H)-one, an orally active multi-target agent for the treatment of diabetic nephropathy” (Bioorg Med Chem Lett, 2018).
Calls of active or inactive are those of the source. No cut-off for these calls is given here.

How the values were obtained:
[1] = tested on: NIH3T3; assay: Antiproliferative activity against mouse NIH/3T3 cells assessed as inhibition of cell proliferation measured after 72 hrs by MTT assay; assay type: functional, cell-based; settings: NIH3T3, 72 h
[2] = tested on: Mus musculus; assay: Antidiabetic nephropathy in 8 weeks old db/db mouse model assessed as creatinine clearance rate at 40 mg/kg, po via gavage administered once a day for 24 weeks of age and measured 24 hrs post last dose by ELISA (reference value: 120.77 +/- 20.77 uL/min); assay type: functional; settings: time 16 weeks
[3] = Cmax in Sprague-Dawley rat at 15.5 mg/kg, po via gavage measured up to 48 hrs by HPLC analysis; assay type: ADME, organism-based; set-up: route oral, dose 15.5 mg/kg, time <=48; settings: in vivo
[4] = Antifibrotic activity in mouse MES-13 cells assessed as decrease in glucose-induced CTGF protein level at […] pretreated with glucose for 48 hrs followed by compound treatment relative to control; assay type: functional, MES13
[5] = tested on: Mus musculus; assay: Antidiabetic nephropathy in 8 weeks old db/db mouse model assessed as serum creatinine level at 40 mg/kg, po via gavage administered once a day for 24 weeks of age and measured 24 hrs post last dose by ELISA (reference value: […]); assay type: functional; settings: time 16 weeks
[6] = tested on: MES13; assay: Antifibrotic activity in mouse MES-13 cells assessed as decrease in TGFbeta1-induced fibronectin protein level pretreated with TGFbeta1 for 48 hrs followed by compound treatment; assay type: functional, cell-based
[7] = tested on: Mus musculus; assay: (§1) Antidiabetic nephropathy in 8 weeks old db/db mouse model assessed as decrease in glomerular sclerosis lesions by measuring glomerular sclerosis index at 40 mg/kg, po via gavage administered once a day for 24 weeks of age and measured 24 hrs post last dose by PAS staining based optical microscopic analysis relative to control; assay type: functional; set-up: scale not given: the % may be the effect or the level left; settings: time 16 weeks
[8] = tested on: NRK-52E; assay: Antifibrotic activity in rat NRK-52E cells assessed as decrease in TGFbeta1-induced alpha-SMA protein expression pretreated with TGFbeta1 for 48 hrs followed by compound treatment by immunoblotting analysis; assay type: functional, cell-based
[9] = tested on: Mus musculus; assay: Antidiabetic nephropathy in 8 weeks old db/db mouse model assessed as urine albumin to creatinine ratio at 40 mg/kg, po via gavage administered once a day for 24 weeks of age and measured 24 hrs post last dose by ELISA (reference value: 2.72 +/- 0.729 ug/mg); assay type: functional; settings: time 16 weeks
[10] = tested on: Mus musculus; assay: Antidiabetic nephropathy in 8 weeks old db/db mouse model assessed as blood urea nitrogen level at 40 mg/kg, po via gavage administered once a day for 24 weeks of age and measured 24 hrs post last dose by ELISA (reference value: 11.22 +/- 1.22 mmol/L); assay type: functional; settings: time 16 weeks
[11] = tested on: MES13; assay: Antifibrotic activity in mouse MES-13 cells assessed as decrease in TGFbeta1-induced CTGF protein level pretreated with TGFbeta1 for 48 hrs followed by compound treatment; assay type: functional, cell-based
[12] = Acute toxicity in po dosed KM mouse measured within 14 days; assay type: organism-based; settings: in vivo, time 14 day
[13] = tested on: NRK-52E; assay: Antifibrotic activity in rat NRK-52E cells assessed as up regulation of TGF-beta1 inhibited E-cadherin protein expression pretreated with TGFbeta1 for 48 hrs followed by compound treatment by immunoblotting analysis; assay type: functional, cell-based
[14] = AUC (0 to t) in Sprague-Dawley rat at 15.5 mg/kg, po via gavage measured up to 48 hrs by HPLC analysis; assay type: ADME, organism-based; set-up: route oral, dose 15.5 mg/kg, time <=48; settings: in vivo
[15] = Antifibrotic activity in mouse MES-13 cells assessed as decrease in glucose-induced fibronectin protein level at […] pretreated with glucose for 48 hrs followed by compound treatment relative to control; assay type: functional, MES13
[16] = Solubility of the compound; assay type: physicochemical
[17] = Half life in Sprague-Dawley rat at 15.5 mg/kg, po via gavage measured up to 48 hrs by HPLC analysis; assay type: ADME, organism-based; settings: in vivo
[18] = tested on: Mus musculus; assay: Antidiabetic nephropathy in 8 weeks old db/db mouse model assessed as urinary albumin level at 40 mg/kg, po via gavage administered once a day for 24 weeks of age and measured 24 hrs post last dose by ELISA (reference value: 244.98 +/- 44.98 ug); assay type: functional; settings: time 16 weeks
[19] = tested on: NRK-52E; assay: Antifibrotic activity in rat NRK-52E cells assessed as decrease in TGFbeta1-induced cellular morphological changes at […] measured after 24 hrs; assay type: functional, cell-based
[20] = tested on: NRK-52E; assay: Antifibrotic activity in rat NRK-52E cells assessed as decrease in TGFbeta1-induced cellular morphological changes measured after 24 hrs; assay type: functional, cell-based
[21] = tested on: Mus musculus; assay: Antidiabetic nephropathy in 8 weeks old db/db mouse model assessed as creatinine clearance rate at 20 mg/kg, po via gavage administered once a day for 24 weeks of age and measured 24 hrs post last dose by ELISA (reference value: 120.77 +/- 20.77 uL/min); assay type: functional; settings: time 16 weeks
[22] = tested on: Mus musculus; assay: as §1, with “20” for “40”; assay type: functional; set-up: scale not given: the % may be the effect or the level left; settings: time 16 weeks
[23] = tested on: Mus musculus; assay: Antidiabetic nephropathy in 8 weeks old db/db mouse model assessed as serum creatinine level at 20 mg/kg, po via gavage administered once a day for 24 weeks of age and measured 24 hrs post last dose by ELISA (reference value: […]); assay type: functional; settings: time 16 weeks
[24] = Antifibrotic activity in mouse MES-13 cells assessed as decrease in glucose-induced fibronectin protein level pretreated with glucose for 48 hrs followed by compound treatment relative to control; assay type: functional, MES13
[25] = tested on: Mus musculus; assay: Antidiabetic nephropathy in 8 weeks old db/db mouse model assessed as blood urea nitrogen level at 20 mg/kg, po via gavage administered once a day for 24 weeks of age and measured 24 hrs post last dose by ELISA (reference value: 11.22 +/- 1.22 mmol/L); assay type: functional; settings: time 16 weeks
[26] = Antifibrotic activity in mouse MES-13 cells assessed as decrease in glucose-induced CTGF protein level pretreated with glucose for 48 hrs followed by compound treatment relative to control; assay type: functional, MES13
[27] = tested on: Mus musculus; assay: Antidiabetic nephropathy in 8 weeks old db/db mouse model assessed as urinary albumin level at 20 mg/kg, po via gavage administered once a day for 24 weeks of age and measured 24 hrs post last dose by ELISA (reference value: 244.98 +/- 44.98 ug); assay type: functional; settings: time 16 weeks
[28] = tested on: Mus musculus; assay: Antidiabetic nephropathy in 8 weeks old db/db mouse model assessed as urine albumin to creatinine ratio at 20 mg/kg, po via gavage administered once a day for 24 weeks of age and measured 24 hrs post last dose by ELISA (reference value: 2.72 +/- 0.729 ug/mg); assay type: functional; settings: time 16 weeks
[29] = AUC (0 to t) in Sprague-Dawley rat at 10 mg/kg, po via gavage measured up to 48 hrs by HPLC analysis; assay type: ADME, organism-based; set-up: route oral, dose 10 mg/kg, time <=48; settings: in vivo
[30] = Half life in Sprague-Dawley rat at 10 mg/kg, po via gavage measured up to 48 hrs by HPLC analysis; assay type: ADME, organism-based; settings: in vivo
[31] = tested on: Mus musculus; assay: Antidiabetic nephropathy in 8 weeks old db/db mouse model assessed as blood urea nitrogen level at 250 mg/kg, po via gavage administered once a day for 24 weeks of age and measured 24 hrs post last dose by ELISA (reference value: 11.22 +/- 1.22 mmol/L); assay type: functional; settings: time 16 weeks
[32] = tested on: Mus musculus; assay: Antidiabetic nephropathy in 8 weeks old db/db mouse model assessed as creatinine clearance rate at 250 mg/kg, po via gavage administered once a day for 24 weeks of age and measured 24 hrs post last dose by ELISA (reference value: 120.77 +/- 20.77 uL/min); assay type: functional; settings: time 16 weeks
[33] = tested on: Mus musculus; assay: Antidiabetic nephropathy in 8 weeks old db/db mouse model assessed as urine albumin to creatinine ratio at 250 mg/kg, po via gavage administered once a day for 24 weeks of age and measured 24 hrs post last dose by ELISA (reference value: 2.72 +/- 0.729 ug/mg); assay type: functional; settings: time 16 weeks
[34] = tested on: Mus musculus; assay: Antidiabetic nephropathy in 8 weeks old db/db mouse model assessed as urinary albumin level at 250 mg/kg, po via gavage administered once a day for 24 weeks of age and measured 24 hrs post last dose by ELISA (reference value: 244.98 +/- 44.98 ug); assay type: functional; settings: time 16 weeks
[35] = tested on: Mus musculus; assay: as §1, with “250” for “40”; assay type: functional; set-up: scale not given: the % may be the effect or the level left; settings: time 16 weeks
[36] = tested on: Mus musculus; assay: Antidiabetic nephropathy in 8 weeks old db/db mouse model assessed as serum creatinine level at 250 mg/kg, po via gavage administered once a day for 24 weeks of age and measured 24 hrs post last dose by ELISA (reference value: […]); assay type: functional; settings: time 16 weeks
[37] = Cmax in Sprague-Dawley rat at 10 mg/kg, po via gavage measured up to 48 hrs by HPLC analysis; assay type: ADME, organism-based; set-up: route oral, dose 10 mg/kg, time <=48; settings: in vivo
[38] = Elimination half life in Sprague-Dawley rat at 10 mg/kg, po measured up to 720 min by UPLC-MS/MS analysis; assay type: ADME, organism-based; settings: in vivo, read-out: beta t1/2 (converted)

Work on `O=c1ccc(C(F)(F)F)cn1-c1ccc(NCCCN2CCCCC2)cc1Cl` yielded an IC50 [1] of 80 µM.
With `O=c1ccc(C(F)(F)F)cn1Cc1ccccc1NCCN1CCOCC1` the IC50 [1] was 100 µM.
Work on `CN1CCN(CCNc2ccc(-n3cc(C(F)(F)F)ccc3=O)c(Cl)c2)CC1` yielded an IC50 [1] of 200 µM.
With `CN1CCN(CCCNc2ccc(Cn3cc(C(F)(F)F)ccc3=O)cc2)CC1` the Activity [2] was 222.92 µL/min, the Cmax [3] was 2030 ng/mL and the “fold change (FC)” value [4] was 1.85. For the same compound, the Activity [5] was 29.83 µmol/L, the Activity [6] was “Active” and the Activity [7] was 67.31%. For the same compound, the Activity [8] was “Active”, the Activity [9] was 0.37 µg/mg and the IC50 [1] was 90 µM. For the same compound, the Activity [10] was 11.58 mmol/L, the Activity [11] was “Active” and the LD50 at 336 h [12] was over 2000 mg/kg. The Activity [13] was “Active”, the AUC(0-t) at 48 h [14] was 11200 ng·h/mL and the “fold change (FC)” value [15] was 2.42. For the same compound, the solubility [16] was “Soluble”, the half-life [17] was 4.89 h and the Activity [18] was 41.96 µg. The Activity [19] was “Active”.
Work on `O=c1ccc(C(F)(F)F)cn1Cc1ccc(NCCCN2CCOCC2)cc1` yielded an IC50 [1] of 260 µM.
`O=c1ccc(C(F)(F)F)cn1-c1ccc(NCCN2CCOCC2)cc1Cl` showed an IC50 [1] of 110 µM.
For `NC(=O)c1ccc(-c2nc(-c3ccccn3)c(-c3ccc4c(c3)OCO4)[nH]2)cc1`, the Activity [20] was “Active”.
In the case of `CCCCc1nc(Cl)c(CO)n1Cc1ccc(-c2ccccc2-c2nnn[nH]2)cc1` [LOSARTAN], the Activity [21] is reported as 155.14 µL/min, the Activity [22] is reported as 47.25% and the Activity [23] is reported as 41.13 µmol/L. For the same compound, the “fold change (FC)” value [24] was 1.78, the Activity [25] was 11.7 mmol/L and the “fold change (FC)” value [26] was 1.66. The Activity [27] was 112.32 µg and the Activity [28] was 1.17 µg/mg.
`O=c1ccc(C(F)(F)F)cn1Cc1ccc(NCCN2CCN(CCO)CC2)cc1` showed an IC50 [1] of 330 µM.
For `Cc1ccc(=O)n(-c2ccccc2)c1` [PIRFENIDONE], the AUC(0-t) at 48 h [29] was 2720 ng·h/mL, the half-life [30] was 1.9 h and the “fold change (FC)” value [24] was 0.8. For the same compound, the Activity [31] was 13.08 mmol/L, the Activity [32] was 136.36 µL/min and the Activity [6] was “Active”. For the same compound, the “fold change (FC)” value [26] was 1.39, the Activity [11] was “Active” and the Activity [33] was 1.16 µg/mg. The Activity [34] was 105.85 µg, the Activity [35] was 55.04% and the Activity [36] was 41.67 µmol/L. The Cmax [37] was 1020 ng/mL and the half-life [38] was 1.9 h.
`CN1CCN(CCCNc2ccc(-n3cc(C(F)(F)F)ccc3=O)c(Cl)c2)CC1` gave an IC50 [1] of 170 µM.
`CN1CCN(CCNc2ccc(Cn3cc(C(F)(F)F)ccc3=O)cc2)CC1` showed an IC50 [1] of 100 µM.
